Measured values as given in patent US20170071880A1, “SELEGILINE TRANSDERMAL SYSTEM” (KAT Transdermals LLC, priority 2012, published 2017).

Test: Solubility of selegiline in pressure sensitive adhesive polymers
Assay type: physicochemical
Description: The invention pertains to the transdermal delivery of selegiline for the treatment of depression, Parkinson's disease and other neurologic conditions. […] Acrylic pressure sensitive adhesives (PSAs) that could be used with the invention include those based on pure acrylate monomers as well as acrylate copolymers and terpolymers using for example as the comonomers vinyl acetate or hydrocarbon copolymers which may also include pacifiers and other pressure sensitive adhesive modifiers. Commercially available acrylate copolymers include those made by Henkel Corporation under the trade names of Duro-Tak 87-900A (DT 87-900A), 87-901A, 87-9301, 87-9088, and 87-4098. […] Of specific interest is the pressure sensitive adhesive DT 87-4098 which is the only copolymer mentioned above that contains vinyl acetate and which has low levels of peel, shear and tack which can then be enhanced by the incorporation of large amounts of plasticizing liquids such as selegiline. Since these polymers are not crosslinked, the resistance of movement of the drug through the patch itself will be very low thus enhancing the permeability through human skin. Thus it is an object of our invention to use non-crosslinked acrylate copolymer PSAs in matrix selegiline patches, especially PSA DT 87-4098, to provide for excellent permeation of selegiline through human skin. Another object of our invention is to use humectant/solubilizers in the matrix patch to provide for stabilization of the patch through absorption and immobilization of the liquids in the patch. For example such humectant/solubilizers include PVP, PVP/VA, hydroxypropylcellulose, hydroxyethylcellulose, hydroxypropylmethylcellulose, methyl cellulose, Sodium carboxymethyl cellulose, colloidal silica, Xantham Gum, and polyacrylic acid. By experiment we determined that the best humectant/solubilizer for matrix patches delivering selegiline is PVP/VA. PVP/VA has the ability to properly disperse/solubilize within the PSA matrix and to provide additional stability to the matrix, absorb the liquid selegiline base and prevent syneresis. In prior art, PVP was specifically excluded from the use in selegiline patches, which in our case, where we use non crosslinked acrylic PSAs, are shown to be very important to the development of a patch of our invention. It is another object of our invention to incorporate in the matrix PSA humectant/solubilizers, and especially PVP/VA, in the amounts of between 3 to 30% on the weight of the PSA, to provide for better syneresis, adhesion to skin and more rapid permeation of the drug through the skin. The ability of the composition of our patch is such that volatile and non-volatile enhancers can be included in the formulations, which are specifically excluded in the prior art Volatile enhancers for the case of our invention are liquids that have a vapor pressure at 20 degrees Centigrade which is higher than 0.2 mm Hg. Volatile enhancers such as Dimethylsulfoxide (DMSO), decylmethylsulfoxide lactates such as ethyl lactate and propyl lactate isobutyl lactate and lauryl lactate can be incorporated in the PSA matrix system of the selegiline patch of our invention. Thus it is another object of our invention to incorporate volatile enhancers in our patch so as to increase the permeation of selegiline through the human skin and reduce the size of the patch. […]

With `C#CCN(C)[C@H](C)Cc1ccccc1` [selegiline] the “solubility of selegiline in PSA” value (in non-crosslinked acrylic copolymer PSA DT 87-4098) was 59 wt %, the “solubility of selegiline in PSA” value (in non-crosslinked acrylic copolymer PSA DT 87-9088) was 118 wt % and the “solubility of selegiline in PSA” value (in non-crosslinked acrylic copolymer PSA DT 87-9301) was 81 wt %. The “solubility of selegiline in PSA” value (in polyisobutylene (PIB) PSA) was 8 wt % and the “solubility of selegiline in PSA” value (in silicone PSA) was 6 wt %.
